Drawing on patent US10308645B2, “Piperidine oxadiazole and thiadiazole orexin receptor antagonists” (MERCK SHARP & DOHME CORP., priority 2014, dated 2019), this text covers IC50 for 21 molecules.

The target in experiment [1] is hOX1R (orexin-1 receptor) (Homo sapiens, UniProt O43613). The experiment is described as follows: FLIPR Ca2+ Flux Assay, hOX1R. The note with it: CHO cells expressing the receptor; agonist Ala-6,12 human orexin-A. It is filed as cell-based.
In a further experiment the target is human orexin-2 receptor (Homo sapiens (Human), UniProt O43614). The experiment is described as follows: FLIPR Ca2+ Flux Assay, hOX2R. Type of experiment: cell-based. The note with it: CHO cells expressing the receptor; agonist Ala-6,12 human orexin-A. Here is the method: The utility of the compounds in accordance with the present invention as orexin receptor OX1R and/or OX2R antagonists may be readily determined without undue experimentation by methodology well known in the art, including the “FLIPR Ca^2+ Flux Assay” (Okumura et al., Biochem. Biophys. Res. Comm. 280:976-981, 2001). In a typical experiment the OX1 and OX2 receptor antagonistic activity of the compounds of the present invention was determined in accordance with the following experimental method. For intracellular calcium measurements, Chinese hamster ovary (CHO) cells expressing the rat orexin-1 receptor or the human orexin-2 receptor, are grown in Iscove's modified DMEM containing 2 mM L-glutamine, […], 1% hypoxanthine-thymidine supplement, 100 U/ml penicillin, 100 μg/ml streptomycin and 10% heat-inactivated fetal calf serum (FCS). The cells are seeded at 20,000 cells/well into Becton-Dickinson black 384-well clear bottom sterile plates coated with poly-D-lysine. All reagents were from GIBCO-Invitrogen Corp. The seeded plates are incubated overnight at 37° C. and 5% CO2. Ala-6,12 human orexin-A as the agonist is prepared as a 1 mM stock solution in 1% bovine serum albumin (BSA) and diluted in assay buffer (HBSS containing 20 mM HEPES, 0.1% BSA and 2.5 mM probenecid, pH7.4) for use in the assay at a final concentration of 70 pM. Test compounds are prepared as 10 mM stock solution in DMSO, then diluted in 384-well plates, first in DMSO, then assay buffer. On the day of the assay, cells are washed 3 times with 100 μl assay buffer and then incubated for 60 min (37° C., 5% CO2) in 60 μl assay buffer containing 1 μM Fluo-4AM ester, 0.02% pluronic acid, and 1% BSA. The dye loading solution is then aspirated and cells are washed 3 times with 100 μl assay buffer. 30 μl of that same buffer is left in each well. Within the Fluorescent Imaging Plate Reader (FLIPR, Molecular Devices), test compounds are added to the plate in a volume of 25 μl, incubated for 5 min and finally 25 μl of agonist is added. Fluorescence is measured for each well at 1 second intervals for 5 minutes and the height of each fluorescence peak is compared to the height of the fluorescence peak induced by […] Ala-6,12 orexin-A with buffer in place of antagonist. For each antagonist, IC50 value (the concentration of compound needed to inhibit 50% of the agonist response) is determined. Alternatively, compound potency can be assessed by a radioligand binding assay (described in Bergman et. al. Bioorg. Med. Chem. Lett. 2008, 18, 1425-1430) in which the inhibition constant (Ki) is determined in membranes prepared from CHO cells expressing either the OX1 or OX2 receptor. The intrinsic orexin receptor antagonist activity of a compound which may be used in the present invention may be determined by these assays.
Chain of human orexin-2 receptor (O43614 whole entry): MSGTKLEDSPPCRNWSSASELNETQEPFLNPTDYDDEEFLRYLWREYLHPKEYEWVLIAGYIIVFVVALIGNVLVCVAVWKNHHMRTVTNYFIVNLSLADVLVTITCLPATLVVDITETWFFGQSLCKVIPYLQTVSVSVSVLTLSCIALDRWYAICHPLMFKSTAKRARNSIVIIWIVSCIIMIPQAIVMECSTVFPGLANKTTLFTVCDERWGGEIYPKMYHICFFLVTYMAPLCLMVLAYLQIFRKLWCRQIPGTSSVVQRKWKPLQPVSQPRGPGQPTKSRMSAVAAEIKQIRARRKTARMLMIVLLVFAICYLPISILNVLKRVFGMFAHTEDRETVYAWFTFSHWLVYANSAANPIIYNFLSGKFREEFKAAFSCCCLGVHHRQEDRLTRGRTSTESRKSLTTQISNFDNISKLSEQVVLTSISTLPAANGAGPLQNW

Turning to `C[C@@H]1CC[C@@H](c2noc(C(C)(C)O)n2)CN1C(=O)c1ccc(F)cc1-n1nccn1` [Example 21, 2-{3-[(3R,6R)-1-{[4-Fluoro-2-(2H-1,2,3-triazol-2-yl)phenyl]carbonyl}-6-methylpiperidin-3-yl]-1,2,4-oxadiazol-5-yl}propan-2-ol], the IC50 is more than 10000 nM in experiment [1] and 44 nM on human orexin-2 receptor.

Turning to `C[C@@H]1CC[C@@H](c2noc(C(C)(C)O)n2)CN1C(=O)c1ccccc1C1(C#N)CC1` [Example 11, 1-[2-({(2R,5R)-5-[5-(1-hydroxy-1-methylethyl)-1,2,4-oxadiazol-3-yl]-2-methylpiperidin-1-yl}carbonyl)phenyl]cyclopropanecarbonitrile], the IC50 in experiment [1] is 2290 nM; at human orexin-2 receptor, 22 nM.

On to `C[C@@H]1CC[C@@H](c2nsc(C(C)(C)O)n2)CN1C(=O)c1ccccc1-n1nccn1` [Example 35, 2-{3-[(3R,6R)-6-methyl-1-{[2-(2H-1,2,3-triazol-2-yl)phenyl]carbonyl}piperidin-3-yl]-1,2,4-thiadiazol-5-yl}propan-2-ol], for which the figures for the IC50 (in experiment [1]; on human orexin-2 receptor) were 2380 nM and 27 nM, respectively.

For `C[C@@H]1CC[C@@H](c2nsc(C(C)(C)O)n2)CN1C(=O)c1ccccc1C1(C#N)CC1` [Example 32, 1-[2-({(2R,5R)-5-[5-(1-hydroxy-1-methylethyl)-1,2,4-thiadiazol-3-yl]-2-methylpiperidin-1-yl}carbonyl)phenyl]cyclopropane-carbonitrile], the values for the IC50 (in experiment [1]; at human orexin-2 receptor) were 2420 nM and 18 nM, respectively.

In the case of `C[C@@H]1CC[C@@H](c2nsc(C(C)(C)O)n2)CN1C(=O)c1cscc1-n1nccn1` [Example 31, 2-{3-[(3R,6R)-6-methyl-1-{[4-(2H-1,2,3-triazol-2-yl)thiophen-3-yl]carbonyl}piperidin-3-yl]-1,2,4-thiadiazol-5-yl}propan-2-ol], the IC50 is more than 10000 nM in experiment [1] and 110 nM at human orexin-2 receptor.

As for `COC(C)(C)c1nc([C@@H]2CC[C@@H](C)N(C(=O)c3ccccc3-n3nccn3)C2)ns1` [Example 43, (2R,5R)-5-[5-(1-methoxy-1-methylethyl)-1,2,4-thiadiazol-3-yl]-2-methyl-1-{[2-(2H-1,2,3-triazol-2-yl)phenyl]carbonyl}piperidine], the values for the IC50 (in experiment [1]; at human orexin-2 receptor) were 1410 nM and 39 nM, respectively.

On to `CCOc1ccccc1C(=O)N1C[C@H](c2noc(C(C)(C)O)n2)CC[C@H]1C` [Example 19, 2-(3-{(3R,6R)-1-[(2-ethoxyphenyl)carbonyl]-6-methylpiperidin-3-yl}-1,2,4-oxadiazol-5-yl)propan-2-ol], for which the half-maximal inhibitory concentration (IC50) in experiment [1] is more than 10000 nM; on human orexin-2 receptor, 124 nM.

Regarding `C[C@@H]1CC[C@@H](c2noc([C@@H](O)C(F)(F)F)n2)CN1C(=O)c1ccccc1-n1nccn1` [Example 9, (1R)-2,2,2-Trifluoro-1-{3-[(3R,6R)-6-methyl-1-{[2-(2H-1,2,3-triazol-2-yl)phenyl]carbonyl}piperidin-3-yl]-1,2,4-oxadiazol-5-yl}ethanol], the IC50 in experiment [1] was found to be 1010 nM; at human orexin-2 receptor, 77 nM.

With `C[C@@H]1CC[C@@H](c2noc(C(C)(C)O)n2)CN1C(=O)c1ccsc1-n1nccn1` [Example 13, 2-{3-[(3R,6R)-6-methyl-1-{[2-(2H-1,2,3-triazol-2-yl)thiophen-3-yl]carbonyl}piperidin-3-yl]-1,2,4-oxadiazol-5-yl}propan-2-ol], the figures for the IC50 (in experiment [1]; at human orexin-2 receptor) were more than 10000 nM and 39 nM, respectively.

On to `C[C@@H]1CC[C@@H](c2noc(C(C)(C)O)n2)CN1C(=O)c1cscc1-c1ncccn1` [Example 24, 2-(3-{(3R,6R)-6-methyl-1-[(4-pyrimidin-2-ylthiophen-3-yl)carbonyl]piperidin-3-yl}-1,2,4-oxadiazol-5-yl)propan-2-ol], for which the values for the IC50 (in experiment [1]; on human orexin-2 receptor) were more than 10000 nM and 76 nM, respectively.

For `C[C@@H]1CC[C@@H](c2nsc(C(C)(C)O)n2)CN1C(=O)c1ccccc1OC(F)F` [Example 36, 2-{3-[(3R,6R)-1-{[2-(difluoromethoxy)phenyl]carbonyl}-6-methylpiperidin-3-yl]-1,2,4-thiadiazol-5-yl}propan-2-ol], the results for the IC50 (in experiment [1]; at human orexin-2 receptor) were more than 10000 nM and 243 nM, respectively.

For the molecule `C[C@@H]1CC[C@@H](c2noc([C@H](O)C(F)(F)F)n2)CN1C(=O)c1ccccc1-n1nccn1` [Example 7, (1S)-2,2,2-trifluoro-1-{3-[(3R,6R)-6-methyl-1-{[2-(2H-1,2,3-triazol-2-yl)phenyl]carbonyl}piperidin-3-yl]-1,2,4-oxadiazol-5-yl}ethanol], the results for the IC50 (in experiment [1]; at human orexin-2 receptor) were 456 nM and 22 nM, respectively.

`CC(C)Oc1ncccc1C(=O)N1C[C@H](c2noc(C(C)(C)O)n2)CC[C@H]1C` [Example 17, 2-{3-[(3R,6R)-6-methyl-1-{[2-(1-methylethoxy)pyridin-3-yl]carbonyl}piperidin-3-yl]-1,2,4-oxadiazol-5-yl}propan-2-ol]: the values for the half-maximal inhibitory concentration (IC50) (in experiment [1]; on human orexin-2 receptor) were more than 10000 nM and 219 nM, respectively.

Regarding `C[C@@H]1CC[C@@H](c2nsc(C(C)(C)O)n2)CN1C(=O)c1ccccc1-n1ncnn1` [Example 34, 2-{3-[(3R,6R)-6-methyl-1-{[2-(2H-tetrazol-2-yl)phenyl]carbonyl}piperidin-3-yl]-1,2,4-thiadiazol-5-yl}propan-2-ol], the IC50 in experiment [1] is more than 10000 nM; at human orexin-2 receptor, 339 nM.

With `COC(=O)c1ccccc1C(=O)N1C[C@H](c2noc(C(C)(C)O)n2)CC[C@H]1C` [Example 20, methyl 2-({(2R,5R)-5-[5-(1-hydroxy-1-methylethyl)-1,2,4-oxadiazol-3-yl]-2-methylpiperidin-1-yl}carbonyl)benzoate], the IC50 in experiment [1] was more than 10000 nM; at human orexin-2 receptor, 97 nM.

With `CC(C)Oc1ncccc1C(=O)N1C[C@H](c2nsc(C(C)(C)O)n2)CC[C@H]1C` [Example 30, 2-{3-[(3R,6R)-6-methyl-1-{[2-(1-methylethoxy)pyridin-3-yl]carbonyl}piperidin-3-yl]-1,2,4-thiadiazol-5-yl}propan-2-ol], the IC50 was more than 10000 nM in experiment [1] and 298 nM at human orexin-2 receptor.

Consider `C[C@@H]1CC[C@@H](c2nc(C3CC3)no2)CN1C(=O)c1ccccc1-n1nccn1` [Example 28, (2R,5R)-5-(3-cyclopropyl-1,2,4-oxadiazol-5-yl)-2-methyl-1-{[2-(2H-1,2,3-triazol-2-yl)phenyl]carbonyl}piperidine], for which the values for the IC50 (in experiment [1]; on human orexin-2 receptor) were more than 10000 nM and 345 nM, respectively.

`C[C@@H]1CC[C@@H](c2nsc(C(C)(C)O)n2)CN1C(=O)c1ccsc1-n1nccn1` [Example 29, 2-{3-[(3R,6R)-6-Methyl-1-{[2-(2H-1,2,3-triazol-2-yl)thiophen-3-yl]carbonyl}piperidin-3-yl]-1,2,4-thiadiazol-5-yl}propan-2-ol]: the IC50 in experiment [1] was more than 10000 nM; on human orexin-2 receptor, 88 nM.

For `CC(C)c1nc([C@@H]2CC[C@@H](C)N(C(=O)c3ccccc3-n3nccn3)C2)no1` [Example 4, (2R,5R)-2-methyl-5-[5-(1-methylethyl)-1,2,4-oxadiazol-3-yl]-1-{[2-(2H-1,2,3-triazol-2-yl)phenyl]carbonyl}piperidine], the figures for the IC50 (in experiment [1]; at human orexin-2 receptor) were 699 nM and 28 nM, respectively.

On to `C[C@@H]1CC[C@@H](c2noc(C(C)(C)C)n2)CN1C(=O)c1ccccc1-n1nccn1` [Example 2, (2R,5R)-5-(5-tert-butyl-1,2,4-oxadiazol-3-yl)-2-methyl-1-{[2-(2H-1,2,3-triazol-2-yl)phenyl]carbonyl}piperidine], for which the IC50 in experiment [1] was 516 nM; at human orexin-2 receptor it was 29 nM.

With `COC(C)(C)c1nc([C@@H]2CC[C@@H](C)N(C(=O)c3ccccc3-n3nccn3)C2)no1` [Example 8, (2R,5R)-5-[5-(1-Methoxy-1-methylethyl)-1,2,4-oxadiazol-3-yl]-2-methyl-1-{[2-(2H-1,2,3-triazol-2-yl)phenyl]carbonyl}piperidine], the IC50 came out at 3700 nM in experiment [1] and 98 nM at human orexin-2 receptor.
